{"source": "paper PMC12992715", "about": "“Dual interference with host neuropeptide signaling allows parasitoid wasp to hijack host sugar metabolism” (The EMBO Journal, 2025)", "key": {"PxsNPFR [1]": {"test_system": "PxsNPFR", "experiment": "cAMP-Glo assay: inhibition of forskolin-induced cAMP accumulation in PxsNPFR-expressing HEK293 cells", "type": "cell-based, Plutella xylostella", "experimental": "Cells were treated with 10 μM forskolin and various concentrations of the indicated peptide for 15 min at 37 °C (n = 3). […] Data are represented as mean ± SEM. *P<0.05, **P< 0.01, ***P< 0.005, not shown P > 0.05. […] (A) Two-tailed unpaired Student’s t test; (B–H) one-way ANOVA and Tukey’s multiple comparison tests.\nMeasurement of cyclic AMP in the HEK293/PxsNPFR cell line was accomplished with the cAMP-Glo™ Assay (Promega) according to the manufacturer’s instructions. Cells were seeded into the 96-well tissue culture plate (Thermo) overnight to grow at a recommended cell density (2500-10,000 cells/well). For the assay, cells were washed three times with PBS and then stimulated with 10 μM forskolin (Beyotime, added with 500 μM IBMX, Sigma-Aldrich) alone or 10 μM forskolin (added with 500 μM IBMX) with the indicated concentrations of synthetic sNPF for 15 min at room temperature. To generate a cAMP standard curve, cAMP standards supplied with the kit were prepared in a separate 96-well. Chemiluminescent signals were measured for 1 s/well on a SpectraMax iD5 Multi-Mode Microplate Reader (Molecular Devices)."}, "PxsNPFR [2]": {"test_system": "PxsNPFR", "experiment": "Intracellular Ca2+ mobilisation (Fura-2/AM) in PxsNPFR-expressing HEK293 cells", "type": "cell-based, Plutella xylostella", "details": "2.5 μM Fura-2/AM, excitation 340/380 nm, 37 °C, result in words", "experimental": "To establish a stable HEK293/PxsNPFR cell line, the pcDNA 3.1^(+)/PxsNPFR plasmid was transfected into the HEK293 cells using Lipofectamine 3000 (Invitrogen). Two days later, 800 μg/ml G418 (Sangon Biotech) was added to the culture medium to select cells that stably expressed the receptor. After three weeks, resistant clones were trypsinised in cloning cylinders and transferred to 12-well plastic plates for expansion.\nTo measure the intracellular calcium flux, the transfected cells HEK293/PxsNPFR were harvested with PBS solution containing 0.02% EDTA, rinsed twice with PBS, and resuspended in Hanks’ balanced salt solution containing 0.025% BSA. Cells were then loaded with 2.5 μM Fura-2/AM (Dojindo) for 30 min at 37 °C and washed twice in Hanks’ balanced saline solution. These cells were stimulated with the indicated concentrations of synthetic sNPF, and Hanks’ solution was used as a negative control. The calcium flux was measured using excitation at 340 nm and 380 nm on a SpectraMax iD5 Multi-Mode Microplate Reader (Molecular Devices) at 37 °C."}, "P. xylostella larvae [3]": {"test_system": "P. xylostella larvae", "experiment": "Circulating haemolymph trehalose after injection of synthetic sNPF peptides, venom, CvBV or teratocyte content", "type": "in vivo, Plutella xylostella", "details": "words", "procedure": "Microinjections were performed under a Stemi 2000C microscope (Zeiss) using glass capillary injection needles and an Eppendorf Femtojet (Eppendorf) with a microcontroller (Narishige). To confirm the function of bovine insulin on hosts, 1 μg bovine insulin (Sigma-Aldrich, I0305000) was injected into the middle 3rd instar P. xylostella larvae. To identify the effect of each parasitic factor on hosts, 0.05 FE CvBV or 0.05 VRE venom was injected into the abdomen of the middle 3rd instar P. xylostella larva (Wang et al, [2018]; Yu et al, [2007]). 1 TE teratocytes’ content was microinjected into the early 4th instar P. xylostella larvae. To confirm the function of each synthetic sNPF peptide, 0.005 ng, 0.05 ng, or 0.5 ng of each peptide was injected into the middle 3rd instar P. xylostella larvae in a volume of 0.1 μl/per larva once per day for 3 consecutive days.\nFor P. xylostella larvae, 1 μl of haemolymph from the moth was diluted 60-fold in cold PBS and subjected to trehalose determination. The fat body of P. xylostella larvae was homogenised in 200 μl of cold PBS. Half of the homogenate was centrifuged at 13,000 rpm for 15 min, and the supernatant was used for protein content determination by Bradford Reagent (Invitrogen). The rest was heated at 70 °C for 5 min followed by centrifuging at 13,000 rpm for 15 min, and the supernatant was used for glycogen determination.\nTrehalose content determination was performed by the anthrone sulfate method. 15 μL of the sample was incubated with 15 μL of 1% H2SO4 at 90 °C for 10 min, then 15 μL of 30% KOH was added and incubated at 90 °C for 10 min. Finally, 300 μl of 0.2% anthrone (Sigma-Aldrich) solution in 96% H2SO4 was added and incubated at 90 °C for 10 min. All reactions were stopped by immersion in ice. To create a trehalose standard curve, 15 μl of trehalose standards (Sigma-Aldrich) were treated similarly as a sample. Finally, 100 μl of each sample was added to a 96-well plate. The absorbance of samples was then measured at 630 nm on a SpectraMax® iD5 Multi-Mode Microplate Reader (Molecular Devices), and the trehalose levels were calculated based on the standard curve and normalised by protein content or sample volume."}, "P. xylostella larvae [4]": {"test_system": "P. xylostella larvae", "experiment": "Feeding time and feeding interval time", "type": "in vivo, Plutella xylostella", "details": "sPxsNPF-1-injected, middle 4th instar; words", "text": "Appendix Figure S4. PxsNPF is mainly expressed in the CNS and midgut-trachea of the host as an appetite-suppressing hormone\n(A) Relative mRNA levels of PxsNPF in different tissues of non-parasitized and C. vestalis-parasitized host larvae at late 3rd instar (n = 3). (B) Left: schematic diagram of the general composition and cell types of the midgut. EC, enterocyte; ISC, intestinal stem cell; EB, enteroblast; EE, enteroendocrine cell; BM, basement membrane; VM, visceral muscle. Right: PxsNPF (red) is expressed in the tracheae of the midgut (white arrowheads). Nuclei were labelled by DAPI (blue). NP: non-parasitized hosts, P: parasitized hosts. Scale bars, 200 μm. (C) Immunostaining of PxsNPF prepropeptide (red) in the whole midgut of non-parasitized and parasitized P. xylostella larvae at late 3rd-instar. White dashed boxes indicate areas magnified in Fig.\n5E. Nuclei were labelled by DAPI (blue). Scale bar: 500 μm. (D) Feeding time (left, n = 40 for grey, n = 23 for blue, n = 54 for red, n = 29 for purple) and interval time (right, n = 35 for grey, n = 13 for blue, n = 33 for red, n = 25 for purple) of non-parasitized, C. vestalis-parasitized, and sPxsNPF-1-injected and sCvsNPF-injected P. xylostella larvae at middle 4th-instar during feeding behaviour. Data are represented as […]\nTwo-tailed unpaired Student’s t-test, except for (D) (One-way ANOVA and Tukey’s multiple comparison tests). […]"}, "[5]": {"test_system": "P. xylostella fat body and midgut transcriptome", "experiment": "RNA sequencing of fat body and midgut after injection of sPxsNPF-1 or sCvsNPF", "type": "in vivo, Plutella xylostella", "procedure": "The fat body and midgut of the 4 M instar P. xylostella larvae were dissected under the microscope in PBS on ice. Total RNA was isolated using an RNA isolater Total RNA Extraction Reagent (Vazyme) according to the manufacturer’s instructions. The quality and the concentration of the isolated total RNA were estimated by electrophoresis and a NanoDrop 2000. The transcriptome sequencing was performed at Annoroad Gene Technology. cDNA libraries for transcriptome sequencing made from the total RNA were prepared using the NEBNext Ultra RNA Library Prep Kit for Illumina in conjunction with the NEBNext Poly (A) mRNA Magnetic Isolation Module. Libraries were validated and quantified before being pooled and sequenced on an Illumina HiSeq 2000 (Illumina) sequencer with a 150 bp paired-end protocol. The raw reads were filtered by removing adaptor sequences, empty reads and low-quality sequences (reads with unknown sequences ‘N’). Sequences were de novo assembled using Trinity on a Galaxy Portal, and both ends were sequenced. The fragments per kilobase of transcript per million mapped reads (FPKM) method was used to analyse the expression profiles of all unigenes in different samples. Read counts were input into DESeq2 to calculate differential gene expression and statistical significance. […]"}}, "note": "No end group written: not given here."}
{"substance": "SVRSPSRRLRF-NH2 [sPxsNPF-1, synthetic short neuropeptide F-1 of Plutella xylostella]", "values": [{"measurement": "inhibition of forskolin-stimulated cAMP accumulation", "setting": "PxsNPFR [1]; HEK293/PxsNPFR, 10 μM forskolin + 500 μM IBMX, 15 min, various peptide concentrations, result in words", "result": "an inhibitory effect was not observed"}, {"measurement": "G protein coupling of the peptide-PxsNPFR complex", "setting": "PxsNPFR [1]; conclusion from cAMP and Ca2+ assays, words", "result": "regulates Gq protein-mediated signalling"}, {"measurement": "intracellular Ca2+ mobilisation", "setting": "PxsNPFR [2]", "result": "elicited a rapid and transient increase in intracellular Ca^2+ mobilisation"}, {"measurement": "effect on haemolymph trehalose level, dose dependence", "setting": "P. xylostella larvae [3]; 0.005, 0.05, 0.5 ng per larva", "result": "dependent on the concentration"}, {"measurement": "effect on haemolymph trehalose level", "setting": "P. xylostella larvae [3]; synthetic PxsNPFs, injected into 3M larvae, measured at 4M, high dosage 0.5 ng per larva, n = 4-6", "result": "increased the haemolymph trehalose level"}, {"measurement": "feeding interval time", "setting": "P. xylostella larvae [4]", "result": "longer"}, {"measurement": "feeding time", "setting": "P. xylostella larvae [4]", "result": "unaffected"}, {"measurement": "DEGs common to sPxsNPF-1 and sCvsNPF sets", "setting": "[5]; 157 transcripts in both sets", "result": 3.6, "unit": "%"}, {"measurement": "expression of genes involved in Gq activation (PLC, IP3)", "setting": "[5]; RNA-seq after injection, words", "result": "significantly upregulated after sPxsNPF-1 injection"}]}
